Assay results from patent publication US10064830B2, “Treatment and prevention of cardiovascular disease and thrombosis” (The Cleveland Clinic Foundation, priority 2012, dated 2018).
Entries after “also recorded” stand apart in the source; their conditions may differ.

Columns and labels:
[1] = system: peritoneal mouse macrophages; assay: Total cholesterol in peritoneal macrophages by stable isotope dilution LC/MS/MS (Example 5); format: in vivo, C57BL/6J.Apoe−/− male mice; details: chow with 1.3% choline, 1.3% DMB, both or neither
Experimental: Experiments were conducted during development of embodiments of the present invention to determine the effect of DMB on total cholesterol level in peritoneal mouse macrophages (SEE FIG. 7). C57BL/6J.Apoe−/− male mice at the time of weaning (4 weeks) were placed on chow diet supplemented with 1.3% choline, 1.3% DMB, both, or neither. The total cholesterol of cells was quantified by stable isotope dilution LC/MS/MS. Cells number was quantified by protein content in cell lystates.

[2] = system: endogenous foam cell formation; assay: Macrophage cholesterol content and plasma TMAO in mice on chow supplemented with choline, TMAO or DMB (Example 1); format: in vivo, C57BL/6J.Apoe−/− mice; details: normal chow supplemented with choline, TMAO or DMB vs normal chow control
Experimental: Male C57BL/6J.Apoe−/− mice (15 week old) were placed on normal chow (control) alone or supplemented in the presence of either choline (1.0%), TMAO (0.12%), or DMB (1.0%). Peritoneal macrophages were recovered from the indicated number of mice at 20 weeks of age and cellular cholesterol content was quantified by stable isotope dilution GC/MS, and normalized to DNA content.
Experiments were conducted during development of embodiments of the present invention to examine the structural specificity of phaophatidylcholine metabolites in promoting a pro-atherogenic macrophage phenotype as monitored by endogenous foam cell formation. C57BL/6J.Apoe−/− mice at time of weaning were placed on either normal chow diet (control) or normal chow supplemented with either choline, TMAO or the choline analog DMB, where the quaternary amine nitrogen of choline is replaced with a carbon (SEE FIG. 2, right). Thus, DMB is structurally identical to choline except there is no C—N bond for potential cleavage and TMA formation by gut flora.

wild-type mice = assay: Carotid artery in vivo thrombosis rates by vital microscopy, wild-type mice (Example 7, parts 6-7); details: for in vivo thrombosis rates: diets +/- ABS or DMB for 3 weeks
Experimental: This example repeats the study immediately above, excepts uses wild-type mice. The results are shown FIG. 14.
Carotid artery in vivo thrombosis rates were determined using vital microscopy on the indicated groups of mice shown in FIG. 15. Mice were on the indicated diets +/− ABS or DMB for 3 weeks.

gut flora [3] = assay: Plasma TMA and TMAO in mice after 3 weeks on diets +/- ABS or DMB (Example 7, part 1); format: in vivo; details: female mice, 3 weeks on diet, chow or 1.0% wt/wt choline
Experimental: Six week old female mice were placed on the indicated diets +/− shown in FIG. 9, including Chow, CHOW+antibiotics (ABS; which was 0.5 g/L vancomycin, 1 g/L neomycin sulfate, 1 g/L metronidazole, and 1 g/L ampicillin), TMAO, CH (chow supplemented with 1.0% wt/wt choline), CH and ABS, and CH+DMB. Mice were placed on these diets at 6 weeks of age and maintained on the diets for 3 weeks. Plasma was then recovered and both TMA and TMAO were determined by stable isotope dilution LC/MS/MS.

platelets = assay: Ex vivo platelet aggregation triggered by ADP, platelets from mice on diets (Example 7, parts 2-4); format: in vivo; details: platelets from mice on high choline or TMAO diet +/- antibiotics or DMB
Experimental: (§1) In this example, mice were placed on either normal chow diet at time of weaning, or a high choline diet. After several weeks, whole blood was removed, and platelets isolated. The ability of a submaximal agonist of platelets, ADP, to trigger platelet aggregation was then determined. In parallel, plasma levels of TMAO were determined by established stable isotope dilution LC/MS/MS analyses. […] This is a clear signal of a pro-thrombotic phenotype in the mice on a high choline diet. In a similar study, the mice on the high choline were also placed on a cocktail of broad spectrum antibiotics (described above and in Wang et al., Nature 2011, April, 472(7341):57-63, incorporated by reference it its entirety for all purposes) to suppress intestinal microflora, and reduce plasma TMAO levels. […] Such drugs (e.g., DMB or antibiotics) are attractive since they should not induce excess bleeding (e.g., like commercial anti-thrombotic drugs like clopidogrel or Warfarin). That is, TMAO only accentuates platelet function, and reducing TMAO levels (like with DMB, antibiotic, or some other drug or approach, be it functional food, probiotic, or prebiotic) would decrease in vivo thrombosis, but not reduce below “normal” function, and thus not increase bleeding risk. […]

[4] = Plasma lipoprotein profile of mice on supplemented chow (Example 3); format: in vivo; details: 1.3% DMB added to mouse diet
Experimental: Experiments were conducted during development of embodiments of the present invention to compare plasma levels of (1) cholesterol, (2) triglyceride, low density lipoprotein-cholesterol, and HDL cholesterol in mice fed chow, or chow supplemented with 1.3% choline, 1.3% DMB, or both (SEE FIG. 5).

intestinal microflora = assay: Intestinal microflora-catalyzed generation of trimethylamine from D9-choline in cecum homogenate (Example 6); format: biochemical, Mouse; details: D9-choline substrate
Experimental: Experiments were conducted during development of embodiments of the present invention to examine the effect of DMB on intestinal microflora-catalyzed generation of trimethylamine from choline. Mouse celum was homogenized as a source of intestinal microflora. D9-choline was used as a substrate and the generation of […] was quantificed by stable isotope dilution LC/MS/MS.

Peritoneal macrophages = assay: Cholesterol accumulation and foam cell formation in peritoneal macrophages, oil red O staining (Example 4); format: in vivo, C57BL/6J.Apoe−/− male mice; details: 1.3% DMB added to 1.3% choline diet
Experimental: Experiments were conducted during development of embodiments of the present invention to examine the effect of addition of DMB on cholesterol accumulation and foam cell formation. C57BL/6J.Apoe−/− male mice at the time of weaning (4 weeks) were placed on chow diet supplemented with 1.3% choline, 1.3% DMB, both, or neither. Peritoneal macrophages were collected, fixed in 4% paraformaldehyde and stained with oil red 0/hematoxin.

gut flora [5] = assay: Plasma TMAO by stable isotope dilution LC/MS/MS in the mice of the platelet aggregation study; format: in vivo; details: high choline diet +/- antibiotics or DMB
Experimental: as §1

[6] = system: C57BL/6J.Apoe−/− male mice; assay: Aortic root lesion plaque, oil red O staining (Example 2); format: in vivo
From the text: C57BL/6J.Apoe−/− male mice at the time of weaning (4 weeks) were placed on chow diet supplemented with 1.3% choline, 1.3% DMB, both, or neither. Aortic root section was stained with oil red 0/hematoxin. The red oil staining area inside the aorta indicates lesion plaque (SEE FIGS. 3 and 4).

[7] = system: Atherosclerosis Prone ApoE−/− Mice; assay: Carotid artery in vivo thrombosis rates by vital microscopy, ApoE−/− mice (Example 7, part 5); details: diets +/- ABS for 3 weeks
Experimental: In this example, carotid artery in vivo thrombosis rates were determined using vital microscopy on the indicated groups of mice in FIG. 13. Mice were on the indicated diets +/− ABS for 3 weeks.
These studies extend to in vivo studies what was seen before with ex vivo platelet aggregation studies from mice on the various indicated diets. […] A shorter time indicates faster platelet aggregation (enhanced in vivo thrombosis).

proteus mirabilis = assay: TMA production from choline by proteus mirabilis (FIG. 24); format: cell-based

Compound: CC(C)(C)CCO [DMB, 3,3-dimethyl-1-butanol]
- macrophage cholesterol content (total cholesterol of cells) [1]: blocked
- macrophage cholesterol content [2]: no increased accumulation of cholesterol in endogenous macrophages
- plasma levels of TMAO [2]: no TMAO increase
- in vivo thrombosis rates (wild-type mice): block the reduction in in vivo thrombosis rates seen on a high choline diet
- TMAO levels (wild-type mice; high choline diet +/- ABS or DMB for 3 weeks): block TMAO levels
- plasma TMA (gut flora [3]): inhibits TMA and TMAO formation
- plasma TMAO (gut flora [3]): inhibits TMA and TMAO formation
- platelet aggregation (response to ADP) (platelets): markedly reduces platelet hyperresponsiveness; also recorded: blocks platelet hyper-responsiveness (aggregation)
- plasma HDL cholesterol [4]: increase in high density lipoproteins
- plasma low density lipoprotein-cholesterol [4]: significant reductions
- plasma total cholesterol [4]: significant reductions
- plasma triglyceride [4]: significant reductions
- gut flora-mediated catabolism of choline to TMA (intestinal microflora): markedly inhibited
- cholesterol accumulation and foam cell formation (Peritoneal macrophages): reversed the high choline diet induced cholesterol accumulation and foam cell formation
- plasma TMAO levels (gut flora [5]): inhibits TMAO formation
- reduction of aortic plaque formation ([6]; 1.3% DMB added to normal chow diet, apoE−/− mice): ~90%
- increases in atherosclerotic plaque induced by the high choline diet ([6]; addition to chow with 1.3% choline): blocks the diet-induced enhanced artherosclerosis

Compound: C[N+](C)(C)[O-] [TMAO, trimethylamine N-oxide, reference compound]
- macrophage cholesterol content [2]: increased macrophage cholesterol content
- plasma levels of TMAO [2]: elevated plasma levels of TMAO
- in vivo thrombosis rates (time to cessation of blood flow in the carotid artery) [7]: promotes accelerated in vivo thrombosis rates
- in vivo thrombosis rates (wild-type mice): Enhances In Vivo Thrombosis Rates
- platelet aggregation (response to ADP) (platelets): promotes enhanced platelet aggregation

Compound: C[Si](C)(C)CCO [trimethylsilylethanol, trimethylsilyl ethanol]
- TMA production from choline (proteus mirabilis): serves as an inhibitor of TMA production from choline
